Values after ≈ are worked out from the molar mass of the structure shown. Like-named read-outs stand apart in the source and are kept apart here.
Legend:
HIV-1 = experiment: in-vitro anti-HIV assay: inhibition of the HIV-induced cytopathic effect in HIV-infected MT-4 cells (MTT); type: cell-based, Human Immunodeficiency Virus; conditions: for SI (selectivity index): ratio of CD50 to ED50
Method: (§1) A rapid, sensitive and automated assay procedure was used for the in-vitro evaluation of anti-HIV agents. An […] T4-cell line, MT-4, which was previously shown (Koyanagi et al., Int. J. Cancer, 36, 445-451, 1985) to be highly susceptible to and permissive for HIV infection, served as the target cell line. Inhibition of the HIV-induced cytopathic effect was used as the end point. The viability of both HIV- and mock-infected cells was assessed spectrophotometrically via the in-situ reduction of 3-(4,5-dimethylthiazol-2-yl)-2,5-diphenyltetrazolium bromide (MTT). The 50% cytotoxic dose (CD50 in μg/ml) was defined as the concentration of compound that reduced the absorbance of the mock-infectedcontrol sample by 50%. The percent protection achieved by the compound in HIV-infected cells was calculated by the following formula: [formula] whereby (ODT)HIV is the optical density measured with a given concentration of the test compound in HIV-infected cells; (ODC)HIV is the optical density measured for the control untreated HIV-infected cells; (ODC)MOCK is the optical density measured for the control untreated mock-infected cells; all optical density values were determined at 540 nm. The dose achieving 50% protection according to the above formula was defined as the 50% effective dose (ED50 in μg/ml). The ratio of CD50 to ED50 was defined as the selectivity index (SI).

in vitro = type: cell-based; conditions: human, mt-4 cells
Method: as §1

[1] = Human immunodeficiency virus 1, MT4, dose achieving 50% protection in HIV-infected MT-4 cells, MTT, 540 nm, read-out: ED50 (50% effective dose)

SMILES | EC50 (HIV-1; [1]) [µg/mL] | SI (selectivity index) (HIV-1) | CC50 (in vitro) [µg/mL] | EC50 (HIV-1; Human immunodeficiency virus 1, MT4, read-out: ED50 (50% effective dose)) [µg/mL]
CC(=O)c1ccccc1NC(C)c1c(Cl)cccc1Cl (racemic) [Compound 10, (±)-1-[2-[[1-(2,6-dichlorophenyl)ethyl]amino]phenyl]ethanone] | 0.022 (≈ 0.0714 µM) | 227 | 5 (≈ 16.2 µM) | –
CC(=O)c1cc2c(cc1NC(C(N)=O)c1c(Cl)cccc1Cl)CCC2 (stereo not drawn) [Compound 5] | 0.2 (≈ 0.53 µM) | 50 | 10 (≈ 26.5 µM) | –
CC(=O)c1ccccc1NC(c1c(Cl)cccc1Cl)C1CC1 (racemic) [Compound 14, (±)-1-[2-[[cyclopropyl-(2,6-dichlorophenyl)methyl]amino]phenyl]ethanone] | 0.15 (≈ 0.449 µM) | 27 | 4.1 (≈ 12.3 µM) | –
CCC(Nc1ccccc1C(C)=O)c1c(Cl)cccc1Cl (stereo not drawn) [Compound 11, 1-[2-[[1-(2,6-dichlorophenyl)propyl]amino]phenyl]ethanone] | 0.52 (≈ 1.61 µM) | 13 | 6.9 (≈ 21.4 µM) | –
NC(=O)C(Nc1cccc2ccc[n+]([O-])c12)c1c(Cl)cccc1Cl (stereo not drawn) [Compound 7] | – | 3255 | 53 (≈ 146 µM) | 0.047 (≈ 0.13 µM)
Cc1cc2c(c(NC(C(N)=O)c3c(Cl)cccc3Cl)c1)C(=O)CC2 (racemic) [Compound 1, (±)-2,6-dichloro-α-[(2,3-dihydro-6-methyl-3-oxo-1H-inden-4-yl)amino]benzene-acetamide] | 0.0038 (≈ 0.0105 µM) | 54560 | 207 (≈ 570 µM) | –
CC(Nc1ccccc1[N+](=O)[O-])c1c(Cl)cccc1Cl (stereo not drawn) [Compound 13, 2,6-dichloro-α-methyl-N-(2-nitrophenyl)benzenemethanamine] | 0.021 (≈ 0.0675 µM) | 6 | 0.13 (≈ 0.418 µM) | –
O=[N+]([O-])c1ccccc1NC(CO)c1c(Cl)cccc1Cl (racemic) [Compound 12, (±)-2,6-dichloro-β-(2-nitrophenyl)amino]benzeneethanol] | 0.18 (≈ 0.55 µM) | 25 | 4.3 (≈ 13.1 µM) | –
NC(=O)C(Nc1cccc2c1C(=O)CO2)c1c(Cl)cccc1Cl (racemic) [Compound 9, (±)-2,6-dichloro-α-[(2,3-dihydro-3-oxo-4-benzofuranyl)amino]benzeneacetamide] | 0.12 (≈ 0.342 µM) | 1405 | 169 (≈ 480 µM) | –
NC(=O)C(Nc1cc(Cl)cc2c1OCC2)c1c(Cl)cccc1Cl (stereo not drawn) [Compound 6] | 0.079 (≈ 0.213 µM) | 11 | 0.87 (≈ 2.34 µM) | –

Reference: US5407961A, “α-substituted benzenemethanamine derivatives and pharmaceutical use” (Janssen Pharmaceutica N.V., priority 1991, dated 1995)
